Assay results taken from US20260355199A1, “COMPOSITIONS AND METHODS FOR TREATING OR PREVENTING NONALCOHOLIC STEATOHEPATITIS (NASH), ANOREXIA, DEPRESSION, ENDOMETRIOSIS, AND OTHER DISEASES OR DISORDERS” (priority 2022, published 2026).
“Also recorded” adds a separate entry of the source.

Experiments:
[1] = test system: high fat diet (HFD)-induced diabetic mice; experiment: Feeding of HFD-induced diabetic mice; type: in vivo, mouse; conditions: drinking water, two weeks
Text: It has previously been shown that TET3 expression is aberrantly elevated in the livers of humans and mice with type 2 diabetes and that liver-specific, siRNA-mediated TET3 knockdown improves glucose homeostasis both in dietary and genetic mouse models of diabetes (Li D. et al., 2020, Nature Communications, 11:342). Bobcat339 (4-Amino-1-[1,1′-biphenyl]-3-yl-5-chloro-2(1H)-pyrimidinone) is a synthetic cytosine derivative capable of binding competitively with 5mC to the active sites of [COMPOUND LEFT OUT] and inhibits their enzymatic activity in cultured neuronal cells (Chua G. N. L. et al., 2019, ACS Medicinal Chemistry Letters, 10:180-185). Although not bound by any particular theory, it was hypothesized that Bobcat339 has an anti-diabetic effect owing to its ability to inhibit [COMPOUND LEFT OUT]. Thus, the present studies employed high fat diet (HFD)-induced diabetic mice that were treated with Bobcat339 in drinking water for two weeks. […] Thus, nondiabetic mice fed on regular chow were treated with Bobcat339 in drinking water. Four days later, ARCs were isolated from ad libitum-fed mice and analyzed. […] In light of these observations, additional studies began to explore [COMPOUND LEFT OUT] in AgRP neurons for a potential role in the control of feeding and energy metabolism.

[2] = test system: TET3; experiment: TET3 protein in human MDMs; type: cell-based; conditions: 24 h
Procedure: For siRNA transfection in a 24-well plate scale of MDMs, NT siRNA or TET3 siRNA (4392420/s47239, Ambion) was mixed with 25 μL of OPTI-MEM by gentle pipetting. In parallel, 1.5 μL of Lipofectamine RNAiMAX was mixed with 25 μL of OPTI-MEM by gentle pipetting. Following 5 min of incubation at RT, the resulting 50 μl of transfection solution was added to each well of cells containing 450 μL of growth media.
Bobcat339 Treatment of Cultured Cells Bobcat339 powder (Sigma-Aldrich, SML2611) was freshly dissolved in DMSO at a concentration of 5 mM and filtered through a 0.22 micron. […]
For cultured MDMs, cells were primed with CM-Endo or TGF-β1 (PeproTech, 100-21) for 36-48 h (to increase TET3 expression) before Bobcat339 treatment.
Cells were homogenized in situ using a pipette tip in 2×SDS-sample buffer with 10% β-mercaptoethanol at RT followed by heating at 100 °C for 5 min with occasional vortexing. The samples were loaded onto a 4-15% gradient SDS gel (Bio-rad, 456-8086) (10 μL/well) and transferred to nitrocellulose membranes, followed by Western blot analysis. […]

[3] = test system: HT-22 mouse hippocampal neuronal cells; experiment: DNA 5hmC level in HT-22 hippocampal neuronal cells; type: cell-based; conditions: 10 μM, 24 h
Text: It was not unprecedented that compounds initially developed as protein function inhibitors were later serendipitously found to be protein degraders (Bekes, M. et al., 2022, Nature Reviews Drug Discovery, 21(3):181-200).

[4] = test system: murine model of endometriosis; experiment: Surgically induced murine model of endometriosis; type: in vivo, mouse
Procedure: Female mice were randomly divided into three groups (sham, endometriosis treated with vehicle, and endometriosis treated with Bobcat) and subjected to surgery (week 1) to induce endometriosis or sham (FIG. 22A). The first once-a-week intraperitoneal (i.p.) injection of Bobcat339 (or vehicle) at a dose of 2.5 mg/kg was performed on week 3, followed by euthanasia and blood and tissue collection at week 9.
Given that Bobcat339 degrades TET3 inducing apoptosis (FIG. 26) and that myeloid-specific Tet3 ablation attenuates endometriosis (FIG. 28A through FIG. 28C), studies were performed to test whether Bobcat339 would elicit therapeutic effects on endometriosis. Thus, female mice were randomly divided into three groups (sham, endometriosis treated with vehicle, and endometriosis treated with Bobcat339) and subjected to surgery (week 0) to induce endometriosis or sham (FIG. 28D). The first once-a-week intraperitoneal (i.p.) injection of Bobcat339 (or vehicle) at a dose of 2.5 mg/kg body weight was performed on week 2, followed by euthanasia and blood and tissue collection on week 8. The dose of 2.5 mg/kg was chosen based on the previous studies showing no discernible liver toxicity in mice (Lv et al., 2023, Proc Natl Acad Sci USA, In press).
As Bobcat339 destabilized TET3, thus promoting macrophage apoptosis, additional studies tested whether Bobcat339 inhibits endometriosis (FIG. 25). Female mice were randomly divided into three groups (sham, endometriosis treated with vehicle, and endometriosis treated with Bobcat339) and subjected to surgery (week 0) to induce endometriosis or sham (FIG. 26). The first once-a-week intraperitoneal (i.p.) injection of Bobcat339 (or vehicle) at a dose of 3 mg/kg body weight was performed on week 2, followed by euthanasia and sample collection on week 8.
Bobcat339 powder was freshly dissolved in DMSO at a concentration of 50 mg/mL and filtered through a 0.22 micron filter. It was further diluted with 1×PBS to a final concentration of 0.5 mg/mL before injections. Mice were injected intraperitoneally with Bobcat339 at 2.5 mg/kg body weight.
Briefly, uterus horns were removed from wild-type female donor mice, opened longitudinally and cut into fragments of 3 mm. Two uterine segments were sutured to each right and left parietal peritoneum of recipient mice (6-7 weeks old) with absorbable suture. Sham surgeries were performed for sham group, using the same surgical procedure without the introduction of extraneous uterine tissue. The experimental model was allowed to develop for more than 4 weeks. Development of the model was confirmed by opening the abdominal cavity and measuring the size of endometriotic lesions both macroscopically and histologically.

[5] = test system: TET3; experiment: TET3 protein in mouse peritoneal macrophages; type: cell-based; conditions: 10 μM
Procedure: For cultured mouse peritoneal macrophages, cells were primed with 30 ng/ml of TGF-β1 (R&D Systems, 7666-MB0-005) for 48 h (to increase TET3 expression) before Bobcat339 treatment. Bobcat339 (or DMSO) was added at a final concentration of 10 μM, followed by RNA and protein extraction at time points indicated in the figure legends.
Cells were homogenized in situ using a pipette tip in 2×SDS-sample buffer with 10% β-mercaptoethanol at RT followed by heating at 100 °C for 5 min with occasional vortexing. The samples were loaded onto a 4-15% gradient SDS gel (Bio-rad, 456-8086) (10 μL/well) and transferred to nitrocellulose membranes, followed by Western blot analysis. The antibodies used were anti-TET3 (diluted at 1:1000, GeneTex, GTX121453 for human; diluted at 1:1000, Active Motif, 61395 for mouse), anti-TET2 (diluted at 1:1000, Proteintech, 21207-1-AP for human/mouse), anti-TGF-β1 (diluted at 1:1000, Abcam, ab215715 for human), anti-Lin28A (diluted at 1:1000, Cell Signaling, 3978S), and HRP-conjugated anti-GAPDH (dilution 1:5000; Proteintech, HRP-60004). The secondary antibody was HRP-linked Anti-rabbit IgG (dilution 1:10,000; Rockland, 611-1322).

Nc1nc(=O)n(-c2cccc(-c3ccccc3)c2)cc1Cl [Bobcat339, 4-Amino-1-[1,1′-biphenyl]-3-yl-5-chloro-2(1H)-pyrimidinone]
feeding [1]: became hyperphagic
TET3 protein level ([2]; 10 μM): a decrease in TET3 expression; also recorded: decreased the level of TET3 protein
steady-state level of TET3 protein ([2]; 10 mM (so in the source)): a decrease in the steady-state level of TET3 protein
DNA 5hmC levels [3]: decreased DNA 5hmC levels
TET3-expressing (CD163 double positive) macrophages in lesions ([4]; 2.5 mg/kg i.p. once a week): depletion of TET3/CD163-double positive cells; also recorded: depletion of TET3-expressing macrophages
body weight ([4]; 2.5 mg/kg i.p. once a week): no statistically significant differences were observed in body weight; also recorded: nor was there a significant difference in body weight
endometriosis lesion volume ([4]; 2.5 mg/kg i.p. once a week): significantly reduced the lesion volume; also recorded: a significant decrease in lesion volume; also recorded: a significantly decrease in lesion volume
food intake / appetite in endometriosis mice ([4]; 2.5 mg/kg i.p. once a week): the decrease was not observed; also recorded: improved appetite
IL-1b and IL-6 expression in CD163+ macrophage-enriched areas ([4]; 3 mg/kg i.p. once a week): a dramatic reduction in the expression of IL-1b and IL-6
body weight ([4]; 3 mg/kg i.p. once a week): nor was there a significant difference in body weight
endometriosis lesion volume ([4]; 3 mg/kg i.p. once a week): significantly reduced the lesion volume
number of TET3-overexpressing CD163+ macrophages ([4]; 3 mg/kg i.p. once a week): a marked decrease in the number of TET3-overexpressing CD163^+ macrophages
TET3 protein [5]: downregulated
